Source: US20020111274A1, “1-alkyl-3-[1-(substituted phenyl) benzotriazol-6-yl] uracils” (BASF Aktiengesellschaft, priority 2000, published 2002)

Key:
Set-up in all cases: scale not given here
ABUTH Velvetleaf [1] = assay: Preemergence herbicidal evaluation, ABUTH; assay type: in vivo, Abutilon theophrasti, Medic.; settings: preemergence
Procedure, shortened: (§1)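 Preemergence soil spray: aqueous acetone, ~0.013–0.800 kg/ha, applied right after sowing (seed/potting-soil mix over ~1 in soil). Greenhouse, routine watering. Scored 4–5 wk post-treatment on a rating scale.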

[2] = system: IPOHE Morningglory, Ivyleaf; assay: Postemergence herbicidal evaluation, IPOHE; assay type: in vivo, Ipomoea hederacea, (L.) Jacq.; settings: postemergence spray, rated about two-three weeks after treatment
Procedure, shortened: (§2)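 Seedlings grown about two weeks were sprayed with compound in 80/20 acetone/water containing 1.0% methylated seed oil, at the equivalent of about 0.006 to 0.400 kg/ha, through a nozzle at 40 psi. Plants were kept in the greenhouse and rated visually about two to three weeks after treatment.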

ZEAMX Corn, Field [3] = assay: Postemergence herbicidal evaluation, ZEAMX; assay type: in vivo, Zea mays, L. (Sammel-Bezeichnung); settings: postemergence spray, rated about two-three weeks after treatment
Procedure, shortened: as §2

AMBEL Ragweed, Common [4] = assay: Postemergence herbicidal evaluation, AMBEL; assay type: in vivo, Ambrosia artemisifolia, L.; settings: postemergence spray, rated about two-three weeks after treatment
Procedure, shortened: as §2

ABUTH Velvetleaf [5] = assay: Postemergence herbicidal evaluation, ABUTH; assay type: in vivo, Abutilon theophrasti, Medic.; settings: postemergence spray, rated about two-three weeks after treatment
Procedure, shortened: as §2

[6] = system: CHEAL Lambsquarters, Common; assay: Preemergence herbicidal evaluation, CHEAL; assay type: in vivo, Chenopodium album, L.; settings: preemergence
Procedure, shortened: as §1

ORYSAT Rice, Tebonnet [7] = assay: Preemergence herbicidal evaluation, ORYSAT; assay type: in vivo, Oryza sativa, (L.); settings: preemergence
Procedure, shortened: as §1

SETVI Foxtail, Green [8] = assay: Postemergence herbicidal evaluation, SETVI; assay type: in vivo, Setaria viridis, (L.) Beau; settings: postemergence spray, rated about two-three weeks after treatment
Procedure, shortened: as §2

GLXMAW Soybean, Williams [9] = assay: Preemergence herbicidal evaluation, GLXMAW; assay type: in vivo, Glycine max, (L.) Merr. cv Williams; settings: preemergence
Procedure, shortened: as §1

[10] = system: CHEAL Lambsquarters, Common; assay: Postemergence herbicidal evaluation, CHEAL; assay type: in vivo, Chenopodium album, L.; settings: postemergence spray, rated about two-three weeks after treatment
Procedure, shortened: as §2

[11] = system: TRZAWR Wheat, Winter, cv Riband; assay: Preemergence herbicidal evaluation, TRZAWR; assay type: in vivo, Triticum aestivum; settings: preemergence
Procedure, shortened: as §1

AMBEL Ragweed, Common [12] = assay: Preemergence herbicidal evaluation, AMBEL; assay type: in vivo, Ambrosia artemisifolia, L.; settings: preemergence
Procedure, shortened: as §1

ZEAMX Corn, Field [13] = assay: Preemergence herbicidal evaluation, ZEAMX; assay type: in vivo, Zea mays, L. (Sammel-Bezeichnung); settings: preemergence
Procedure, shortened: as §1

[14] = system: IPOHE Morningglory, Ivyleaf; assay: Preemergence herbicidal evaluation, IPOHE; assay type: in vivo, Ipomoea hederacea, (L.) Jacq.; settings: preemergence
Procedure, shortened: as §1

ORYSAT Rice, Tebonnet [15] = assay: Postemergence herbicidal evaluation, ORYSAT; assay type: in vivo, Oryza sativa, (L.); settings: postemergence spray, rated about two-three weeks after treatment
Procedure, shortened: as §2

ECHOG Barnyardgrass [16] = assay: Postemergence herbicidal evaluation, ECHOG; assay type: in vivo, Echinochloa crus-galli, (L.) Beau; settings: postemergence spray, rated about two-three weeks after treatment
Procedure, shortened: as §2

SETVI Foxtail, Green [17] = assay: Preemergence herbicidal evaluation, SETVI; assay type: in vivo, Setaria viridis, (L.) Beau; settings: preemergence
Procedure, shortened: as §1

GALAP Galium [18] = assay: Postemergence herbicidal evaluation, GALAP; assay type: in vivo, Galium aparine; settings: postemergence spray, rated about two-three weeks after treatment
Procedure, shortened: as §2

[19] = system: TRZAWR Wheat, Winter, cv Riband; assay: Postemergence herbicidal evaluation, TRZAWR; assay type: in vivo, Triticum aestivum; settings: postemergence spray, rated about two-three weeks after treatment
Procedure, shortened: as §2

ECHOG Barnyardgrass [20] = assay: Preemergence herbicidal evaluation, ECHOG; assay type: in vivo, Echinochloa crus-galli, (L.) Beau; settings: preemergence
Procedure, shortened: as §1

GALAP Galium [21] = assay: Preemergence herbicidal evaluation, GALAP; assay type: in vivo, Galium aparine; settings: preemergence
Procedure, shortened: as §1

CASOB Sicklepod [22] = assay: Postemergence herbicidal evaluation, CASOB; assay type: in vivo, Cassia obtusifolia, L.; settings: postemergence spray, rated about two-three weeks after treatment
Procedure, shortened: as §2

CASOB Sicklepod [23] = assay: Preemergence herbicidal evaluation, CASOB; assay type: in vivo, Cassia obtusifolia, L.; settings: preemergence
Procedure, shortened: as §1

GLXMAW Soybean, Williams [24] = assay: Postemergence herbicidal evaluation, GLXMAW; assay type: in vivo, Glycine max, (L.) Merr. cv Williams; settings: postemergence spray, rated about two-three weeks after treatment
Procedure, shortened: as §2

COc1ccc(-n2nnc3cc(F)c(-n4c(=O)cc(C(F)(F)F)n(C)c4=O)cc32)c(C)c1 [Example 24]
ABUTH herbicidal rating (ABUTH Velvetleaf [1]; rate 0.016 kg/ha): 0.0
ABUTH herbicidal rating (ABUTH Velvetleaf [1]; rate 0.032 kg/ha): 6.0
ABUTH herbicidal rating (ABUTH Velvetleaf [1]; rate 0.062 kg/ha): 9.0
ABUTH herbicidal rating (ABUTH Velvetleaf [1]; rate 0.125 kg/ha): 9.0
Postemergence herbicidal rating IPOHE ([2]; 0.008 kg/ha): 0.0
Postemergence herbicidal rating IPOHE ([2]; 0.016 kg/ha): 3.0
Postemergence herbicidal rating IPOHE ([2]; 0.032 kg/ha): 4.0
Postemergence herbicidal rating IPOHE ([2]; 0.062 kg/ha): 4.0
Postemergence herbicidal rating ZEAMX (ZEAMX Corn, Field [3]; 0.008 kg/ha): 3.5
Postemergence herbicidal rating ZEAMX (ZEAMX Corn, Field [3]; 0.016 kg/ha): 3.5
Postemergence herbicidal rating ZEAMX (ZEAMX Corn, Field [3]; 0.032 kg/ha): 3.5
Postemergence herbicidal rating ZEAMX (ZEAMX Corn, Field [3]; 0.062 kg/ha): 4.5
Postemergence herbicidal rating AMBEL (AMBEL Ragweed, Common [4]; 0.008 kg/ha): 0.0
Postemergence herbicidal rating AMBEL (AMBEL Ragweed, Common [4]; 0.016 kg/ha): 0.0
Postemergence herbicidal rating AMBEL (AMBEL Ragweed, Common [4]; 0.032 kg/ha): 0.0
Postemergence herbicidal rating AMBEL (AMBEL Ragweed, Common [4]; 0.062 kg/ha): 2.0
Postemergence herbicidal rating ABUTH (ABUTH Velvetleaf [5]; 0.008 kg/ha): 3.0
Postemergence herbicidal rating ABUTH (ABUTH Velvetleaf [5]; 0.016 kg/ha): 9.0
Postemergence herbicidal rating ABUTH (ABUTH Velvetleaf [5]; 0.032 kg/ha): 9.0
Postemergence herbicidal rating ABUTH (ABUTH Velvetleaf [5]; 0.062 kg/ha): 9.0
CHEAL herbicidal rating ([6]; rate 0.016 kg/ha): 0.0
CHEAL herbicidal rating ([6]; rate 0.032 kg/ha): 0.0
CHEAL herbicidal rating ([6]; rate 0.062 kg/ha): 9.0
CHEAL herbicidal rating ([6]; rate 0.125 kg/ha): 9.0
ORYSAT herbicidal rating (ORYSAT Rice, Tebonnet [7]; rate 0.016 kg/ha): 0.0
ORYSAT herbicidal rating (ORYSAT Rice, Tebonnet [7]; rate 0.032 kg/ha): 0.0
ORYSAT herbicidal rating (ORYSAT Rice, Tebonnet [7]; rate 0.062 kg/ha): 1.0
ORYSAT herbicidal rating (ORYSAT Rice, Tebonnet [7]; rate 0.125 kg/ha): 1.0
Postemergence herbicidal rating SETVI (SETVI Foxtail, Green [8]; 0.008 kg/ha): 0.0
Postemergence herbicidal rating SETVI (SETVI Foxtail, Green [8]; 0.016 kg/ha): 0.0
Postemergence herbicidal rating SETVI (SETVI Foxtail, Green [8]; 0.032 kg/ha): 0.0
Postemergence herbicidal rating SETVI (SETVI Foxtail, Green [8]; 0.062 kg/ha): 0.0
GLXMAW herbicidal rating (GLXMAW Soybean, Williams [9]; rate 0.016 kg/ha): 0.0
GLXMAW herbicidal rating (GLXMAW Soybean, Williams [9]; rate 0.032 kg/ha): 1.0
GLXMAW herbicidal rating (GLXMAW Soybean, Williams [9]; rate 0.062 kg/ha): 2.0
GLXMAW herbicidal rating (GLXMAW Soybean, Williams [9]; rate 0.125 kg/ha): 5.0
Postemergence herbicidal rating CHEAL ([10]; 0.008 kg/ha): 3.0
Postemergence herbicidal rating CHEAL ([10]; 0.016 kg/ha): 3.0
Postemergence herbicidal rating CHEAL ([10]; 0.032 kg/ha): 3.0
Postemergence herbicidal rating CHEAL ([10]; 0.062 kg/ha): 4.0
TRZAWR herbicidal rating ([11]; rate 0.016 kg/ha): 0.0
TRZAWR herbicidal rating ([11]; rate 0.032 kg/ha): 0.0
TRZAWR herbicidal rating ([11]; rate 0.062 kg/ha): 1.0
TRZAWR herbicidal rating ([11]; rate 0.125 kg/ha): 1.0
AMBEL herbicidal rating (AMBEL Ragweed, Common [12]; rate 0.016 kg/ha): 0.0
AMBEL herbicidal rating (AMBEL Ragweed, Common [12]; rate 0.032 kg/ha): 0.0
AMBEL herbicidal rating (AMBEL Ragweed, Common [12]; rate 0.062 kg/ha): 0.0
AMBEL herbicidal rating (AMBEL Ragweed, Common [12]; rate 0.125 kg/ha): 0.0
ZEAMX herbicidal rating (ZEAMX Corn, Field [13]; rate 0.016 kg/ha): 0.0
ZEAMX herbicidal rating (ZEAMX Corn, Field [13]; rate 0.032 kg/ha): 0.0
ZEAMX herbicidal rating (ZEAMX Corn, Field [13]; rate 0.062 kg/ha): 4.0
ZEAMX herbicidal rating (ZEAMX Corn, Field [13]; rate 0.125 kg/ha): 6.0
IPOHE herbicidal rating ([14]; rate 0.016 kg/ha): 0.0
IPOHE herbicidal rating ([14]; rate 0.032 kg/ha): 0.0
IPOHE herbicidal rating ([14]; rate 0.062 kg/ha): 0.0
IPOHE herbicidal rating ([14]; rate 0.125 kg/ha): 0.0
Postemergence herbicidal rating ORYSAT (ORYSAT Rice, Tebonnet [15]; 0.008 kg/ha): 2.0
Postemergence herbicidal rating ORYSAT (ORYSAT Rice, Tebonnet [15]; 0.016 kg/ha): 2.0
Postemergence herbicidal rating ORYSAT (ORYSAT Rice, Tebonnet [15]; 0.032 kg/ha): 2.0
Postemergence herbicidal rating ORYSAT (ORYSAT Rice, Tebonnet [15]; 0.062 kg/ha): 2.5
Postemergence herbicidal rating ECHCG (ECHOG Barnyardgrass [16]; 0.008 kg/ha): 0.0
Postemergence herbicidal rating ECHCG (ECHOG Barnyardgrass [16]; 0.016 kg/ha): 0.0
Postemergence herbicidal rating ECHCG (ECHOG Barnyardgrass [16]; 0.032 kg/ha): 0.0
Postemergence herbicidal rating ECHCG (ECHOG Barnyardgrass [16]; 0.062 kg/ha): 0.0
SETVI herbicidal rating (SETVI Foxtail, Green [17]; rate 0.016 kg/ha): 0.0
SETVI herbicidal rating (SETVI Foxtail, Green [17]; rate 0.032 kg/ha): 0.0
SETVI herbicidal rating (SETVI Foxtail, Green [17]; rate 0.062 kg/ha): 9.0
SETVI herbicidal rating (SETVI Foxtail, Green [17]; rate 0.125 kg/ha): 9.0
Postemergence herbicidal rating GALAP (GALAP Galium [18]; 0.008 kg/ha): 0.0
Postemergence herbicidal rating GALAP (GALAP Galium [18]; 0.016 kg/ha): 1.0
Postemergence herbicidal rating GALAP (GALAP Galium [18]; 0.032 kg/ha): 2.0
Postemergence herbicidal rating GALAP (GALAP Galium [18]; 0.062 kg/ha): 3.0
Postemergence herbicidal rating TRZAWR ([19]; 0.008 kg/ha): 2.5
Postemergence herbicidal rating TRZAWR ([19]; 0.016 kg/ha): 2.5
Postemergence herbicidal rating TRZAWR ([19]; 0.032 kg/ha): 2.5
Postemergence herbicidal rating TRZAWR ([19]; 0.062 kg/ha): 3.5
ECHCG herbicidal rating (ECHOG Barnyardgrass [20]; rate 0.016 kg/ha): 0.0
ECHCG herbicidal rating (ECHOG Barnyardgrass [20]; rate 0.032 kg/ha): 0.0
ECHCG herbicidal rating (ECHOG Barnyardgrass [20]; rate 0.062 kg/ha): 3.0
ECHCG herbicidal rating (ECHOG Barnyardgrass [20]; rate 0.125 kg/ha): 7.0
GALAP herbicidal rating (GALAP Galium [21]; rate 0.016 kg/ha): 0.0
GALAP herbicidal rating (GALAP Galium [21]; rate 0.032 kg/ha): 0.0
GALAP herbicidal rating (GALAP Galium [21]; rate 0.062 kg/ha): 0.0
Postemergence herbicidal rating CASOB (CASOB Sicklepod [22]; 0.008 kg/ha): 0.0
Postemergence herbicidal rating CASOB (CASOB Sicklepod [22]; 0.016 kg/ha): 0.0
Postemergence herbicidal rating CASOB (CASOB Sicklepod [22]; 0.032 kg/ha): 0.0
Postemergence herbicidal rating CASOB (CASOB Sicklepod [22]; 0.062 kg/ha): 0.0
CASOB herbicidal rating (CASOB Sicklepod [23]; rate 0.016 kg/ha): 0.0
CASOB herbicidal rating (CASOB Sicklepod [23]; rate 0.032 kg/ha): 0.0
CASOB herbicidal rating (CASOB Sicklepod [23]; rate 0.062 kg/ha): 0.0
CASOB herbicidal rating (CASOB Sicklepod [23]; rate 0.125 kg/ha): 0.0
Postemergence herbicidal rating GLXMAW (GLXMAW Soybean, Williams [24]; 0.008 kg/ha): 3.0
Postemergence herbicidal rating GLXMAW (GLXMAW Soybean, Williams [24]; 0.016 kg/ha): 3.5
Postemergence herbicidal rating GLXMAW (GLXMAW Soybean, Williams [24]; 0.032 kg/ha): 4.0
Postemergence herbicidal rating GLXMAW (GLXMAW Soybean, Williams [24]; 0.062 kg/ha): 4.0
